The target in one data set is T1, Hexim-1 (Homo sapiens, UniProt O94992).
T1 construct: endogenous in cells; host or cells: HeLa-CD4-LTR-LacZ (RNA immunoprecipitation); HeLa-CD4-LTR-Luc (immunofluorescence)
The experiment in a line: Confocal immunofluorescence of Hexim-1 subcellular localization. The format is cell-based. Particulars: HeLa-CD4-LTR-Luc cells. From the text: (A) Sequence of the basic domains of HIV Tat HXB3, HIV Rev Bru and intracellular Hexim-1. […] Shown is confocal microscopy analysis of the subcellular localization of transfected FLAG-Tat or FLAG-Rev in the presence of DMSO or dCA in HeLa-CD4-LTR-Luc cells. Proteins were recognized with anti-FLAG and Alexa Fluor 568-tagged anti-IgG. Magnification 60×. Data are representative of n = 2 independent experiments. (C) Quantification of the nucleolar fluorescence of panel B using ImageJ. Data are the mean ± SEM from 3 to 4 different cells. […] HeLa-CD4-LTR-LacZ cells were infected with strain NL4-3 for 24 hours. The next day, compounds (dCA, 10 nM; KPT, 400 nM; and SCM, 10 nM) were added for 24 hours. Total, nuclear, and cytoplasmic mRNAs were extracted, and viral messages were determined by qRT-PCR. GAPDH was used for normalization. Data are the mean ± SD from n = 5 independent experiments. […] (G) Quantification of nuclear fluorescence of panel F using ImageJ. […] Statistical significance was determined using one-way ANOVA with post hoc Tukey’s test. ns, not significant; ***, P < 0.0001; **, P < 0.001.
Hexim-1 directly binds to cyclin T1 and is responsible for the inactivation of the kinase activity of P-TEFb ([35], [36]). […] Intracellular Hexim-1 was immunoprecipitated, and 7SK snRNP bound to Hexim-1 was extracted, reverse transcribed, and quantified by qRT-PCR as previously described ([42]) (Fig. 3E). […]

In data set [1] the test system is Tat transactivation activity. Briefly: Transactivation assay (luciferase) in HeLa-CD4-LTR-Luc cells transfected with FLAG-Tat. The class given is cell-based, HIV-1. Particulars: 25 nM, 48 h. How it is done:
Supplementary file : FIG S9 Tat-TAR interaction blocked by dCA in HeLa-CD4-LTR-Luc cells. (A) Transactivation assays. HeLa-CD4-LTR-Luc cells, transfected with Tat or Tat Mut, were incubated with the indicated compounds (dCA and raltegravir [“Ralt.”], 25 nM) or DMSO. Forty-eight hours later, cells were lysed and cross-linked, and luciferase activity relative to the Bradford assay or ChIP TAR RNA (Fig. 6D) was determined. Data are the mean ± SD from n = 3 independent experiments. (B) Western blot of the amount of FLAG-Tat bound to FLAG-tagged beads after elution of the samples for ChIP TAR RNA, as control input. The input of FLAG-Tat and GAPDH as a loading control. Data are representative of n = 3 independent experiments. Statistical significance was determined using one-way ANOVA with post hoc Tukey’s test, comparing DMSO to the other conditions. ***, P < 0.0001. Download FIG S9, PDF file, 0.2 MB.
Chromatin was immunoprecipitated with an anti-FLAG antibody, and qRT-PCR was performed to detect the presence of chromatin-coding TAR (Fig. 6D).
Chromatin immunoprecipitation assay (CHIP). HeLa-CD4-LTR-Luc cells (4×10^6) were transfected with different constructs (PGK-FLAG Tat and PGK-FLAG Tat Mut). […] The relative proportions of co-immunoprecipitated DNA were determined on the basis of the threshold cycle for qRT-PCR. […]

For data set [2] the following is noted: in vivo; cited from earlier work.

T1 sequence (O94992 whole entry): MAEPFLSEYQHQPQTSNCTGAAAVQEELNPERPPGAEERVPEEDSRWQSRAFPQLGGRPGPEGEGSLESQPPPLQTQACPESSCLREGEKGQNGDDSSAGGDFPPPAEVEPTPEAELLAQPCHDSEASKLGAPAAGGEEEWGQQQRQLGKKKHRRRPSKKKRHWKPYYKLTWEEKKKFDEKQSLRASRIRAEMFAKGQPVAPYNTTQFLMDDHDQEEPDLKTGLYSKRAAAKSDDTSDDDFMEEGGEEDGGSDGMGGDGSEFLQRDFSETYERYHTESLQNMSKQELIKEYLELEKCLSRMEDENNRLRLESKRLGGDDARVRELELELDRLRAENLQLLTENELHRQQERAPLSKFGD

On to `CN(C)C1CC23CCC4(O2)C(=CCC2(C)C(c5ccc6ccncc6c5)=CCC24)C=C3C(O)C1O` (stereo not drawn) [dCA, didehydro-cortistatin A], for which, on Hexim-1, the Hexim-1 nuclear localization result was “did not have any effect”. The “Tat transactivation activity (luciferase), transfected FLAG-Tat” value in data set [1] is “inhibited Tat transactivation activity”. The “penetration of viral sanctuaries” value in data set [2] is reported as “penetrates viral sanctuaries such as the brain”.

(Values after PMC6368365, “Didehydro-Cortistatin A Inhibits HIV-1 by Specifically Binding to the Unstructured Basic Region of Tat” (mBio, 2019).)
